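1) Cells in 96-well plates. 2) Compound, 48 h, 5 concentrations. 3) Linear interpolation between surrounding doses. 4) Unreached endpoint = highest concentration. GI50: concentration for 50% inhibition of growth. The concentration for full growth arrest is given as TGI.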

Some test systems named below: HCT-15 colon; HCC-2998 colon; LOX IMVI melanoma; T-47D breast; SK-MEL-2 melanoma; UACC-62 melanoma; M14 melanoma; HS 578T breast; OVCAR-3 ovarian; MDA-MB-435.
Assay in all cases: NCI anticancer screen, dose series, 48 h

Take `CNC(=O)CNC(=O)N(C[C@@H]1CCCN1C(=O)[C@H](CC(C)C)NC(=O)OC(C)(C)C)C(C)C`: the TGI in the assay on HCT-15 colon, with HCC-2998 colon, with LOX IMVI melanoma, in the assay on T-47D breast, in the assay with SK-MEL-2 melanoma and in the assay on UACC-62 melanoma was greater than 100 µM throughout. In addition, the TGI with M14 melanoma, in the assay with HS 578T breast, in the assay on OVCAR-3 ovarian and with MDA-MB-435 was greater than 100 µM in each case.
Consider `O=c1[nH]cnc2c1cnn2Cc1cnnn1COCCO`, for which the TGI in the assay with HCT-15 colon, in the assay on HCC-2998 colon, in the assay with LOX IMVI melanoma, with T-47D breast, in the assay with SK-MEL-2 melanoma and with UACC-62 melanoma was greater than 100 µM each time. For the same compound, the TGI with M14 melanoma was greater than 100 µM; with HS 578T breast it was greater than 100 µM; with OVCAR-3 ovarian it was greater than 100 µM; in the assay with MDA-MB-435 it was 90.5 µM.
Regarding `Fc1ccc(C(OCCN2CCC3CCC(C2)N3C/C=C/c2cccs2)c2ccc(F)cc2)cc1` (stereo not given), the TGI in the assay on HCT-15 colon came to 16.6 µM; with HCC-2998 colon it was 12.9 µM; in the assay with LOX IMVI melanoma, 18.9 µM; with T-47D breast, 15.5 µM; in the assay with SK-MEL-2 melanoma, 24.1 µM; with UACC-62 melanoma, 23.7 µM. Further, the TGI in the assay on M14 melanoma came to 14.8 µM; in the assay with HS 578T breast, 28.4 µM; with OVCAR-3 ovarian, 25.3 µM; in the assay with MDA-MB-435 it was 20.5 µM.
Turning to `COc1ccc([I+]c2ccc(OC)cc2)cc1`, the GI50 in the assay on HCT-15 colon is greater than 100 µM; in the assay with HCC-2998 colon it was 16 µM; in the assay with LOX IMVI melanoma, 6.05 µM; in the assay with T-47D breast, 13.5 µM; in the assay with SK-MEL-2 melanoma it was 43.9 µM; in the assay on UACC-62 melanoma it was 29.9 µM. The GI50 in the assay on M14 melanoma is 13.4 µM; with HS 578T breast, 18.8 µM; with OVCAR-3 ovarian, 11.8 µM; in the assay on MDA-MB-435 it was 14.7 µM. Also, the TGI in the assay on HCT-15 colon, in the assay with HCC-2998 colon, in the assay with LOX IMVI melanoma, with T-47D breast, in the assay on SK-MEL-2 melanoma and with UACC-62 melanoma was greater than 100 µM each time. In addition, the TGI with M14 melanoma, with HS 578T breast, in the assay on OVCAR-3 ovarian and with MDA-MB-435 was greater than 100 µM throughout.
With `COc1ccc(Nc2nc(N)c(C(=O)c3ccc(Cl)cc3)s2)cc1`, the TGI was 5.49 µM in the assay with HCT-15 colon; 3.47 µM with HCC-2998 colon; 19.9 µM in the assay with LOX IMVI melanoma; greater than 100 µM in the assay with T-47D breast; 38.6 µM in the assay with SK-MEL-2 melanoma; greater than 94.5 µM with UACC-62 melanoma. For the same compound, the TGI in the assay with M14 melanoma was greater than 64.4 µM; in the assay with HS 578T breast it was greater than 100 µM; with OVCAR-3 ovarian, 0.421 µM; in the assay on MDA-MB-435, less than 0.01 µM.
In the case of `C=C1CCOC2(C(O)C(C)(O)CO)NC(=O)C1(O)NC2=O` (stereo not given), the TGI in the assay on HCT-15 colon, with HCC-2998 colon, in the assay on LOX IMVI melanoma, in the assay with T-47D breast, in the assay on SK-MEL-2 melanoma and in the assay with UACC-62 melanoma was greater than 100 µM each time. For the same compound, the TGI with M14 melanoma, with HS 578T breast, in the assay with OVCAR-3 ovarian and in the assay with MDA-MB-435 was greater than 100 µM throughout.
`O=C(O)c1nn(-c2ccccc2)nc1-c1nn(-c2ccccc2)nc1C(=O)O`: the TGI with HCT-15 colon, in the assay with HCC-2998 colon, in the assay on LOX IMVI melanoma, with T-47D breast, in the assay with SK-MEL-2 melanoma and with UACC-62 melanoma was greater than 100 µM throughout. Moreover, the TGI in the assay on M14 melanoma, in the assay with HS 578T breast, with OVCAR-3 ovarian and in the assay on MDA-MB-435 was greater than 100 µM each time.
In the case of `C(=C/c1nnnn1-c1ccccc1)/Nc1ccccc1`, the TGI with HCT-15 colon is 44.2 µM; with HCC-2998 colon, 97.7 µM; in the assay with LOX IMVI melanoma, greater than 100 µM; in the assay on T-47D breast, greater than 100 µM; in the assay on SK-MEL-2 melanoma, 20.6 µM; in the assay on UACC-62 melanoma, greater than 100 µM. In addition, the TGI with M14 melanoma was 77.3 µM; with HS 578T breast, greater than 100 µM; in the assay with OVCAR-3 ovarian, 96 µM; in the assay on MDA-MB-435 it was 92.9 µM.
With `O=C(NC1C/C(=N/O)c2c(Br)sc(Br)c21)C(F)(F)F` (stereo not given), the TGI in the assay with HCT-15 colon is greater than 100 µM; with HCC-2998 colon, greater than 100 µM; in the assay with LOX IMVI melanoma it was greater than 100 µM; in the assay with T-47D breast, greater than 100 µM; in the assay with SK-MEL-2 melanoma, 90.1 µM; in the assay on UACC-62 melanoma, greater than 100 µM. In addition, the TGI was greater than 100 µM in the assay on M14 melanoma, 36.3 µM in the assay with HS 578T breast, greater than 100 µM in the assay on OVCAR-3 ovarian and greater than 100 µM with MDA-MB-435.
For `COC(=O)c1ccccc1C1CN=NC12Cc1ccc3c(c1C2=O)CCC3` (stereo not given), the TGI in the assay with HCT-15 colon, with HCC-2998 colon, in the assay on LOX IMVI melanoma, in the assay with T-47D breast, with SK-MEL-2 melanoma and in the assay with UACC-62 melanoma was greater than 100 µM in each case. Besides, the TGI with M14 melanoma, with HS 578T breast, in the assay on OVCAR-3 ovarian and in the assay on MDA-MB-435 was greater than 100 µM each time.
For `CCC(Nc1ncnc2nc[nH]c12)C(=O)O` (stereo not given), the TGI with HCT-15 colon, in the assay on HCC-2998 colon, in the assay on LOX IMVI melanoma, in the assay with T-47D breast, in the assay with SK-MEL-2 melanoma and with UACC-62 melanoma was greater than 100 µM throughout. Moreover, the TGI in the assay with M14 melanoma, with HS 578T breast, with OVCAR-3 ovarian and in the assay with MDA-MB-435 was greater than 100 µM each time.
As to `CCCCCCCCCCCCOC1C(COCCN2CCCCC2)OC2OC(C)(C)OC21` (stereo not given), the TGI with HCT-15 colon was found to be 3.2 µM; with HCC-2998 colon, 3.01 µM; in the assay with LOX IMVI melanoma, 3.01 µM; with T-47D breast, 4.01 µM; in the assay on SK-MEL-2 melanoma it was 3.14 µM; with UACC-62 melanoma it was 3.27 µM. Besides, the TGI is 2.99 µM with M14 melanoma, 4.17 µM with HS 578T breast, 7.25 µM with OVCAR-3 ovarian and 3.17 µM with MDA-MB-435.
With `O=C1Nc2ccc(Br)cc2/C1=N/N1C(=O)C(=O)N(C2CCCCC2)C1=S`, the TGI was 10.4 µM in the assay with HCT-15 colon; 13.5 µM in the assay with HCC-2998 colon; 15.7 µM with LOX IMVI melanoma; 9.95 µM with T-47D breast; 4.34 µM in the assay with SK-MEL-2 melanoma; 12.2 µM in the assay with UACC-62 melanoma. The TGI in the assay on M14 melanoma is 14.6 µM; with HS 578T breast it was 23.2 µM; in the assay with OVCAR-3 ovarian, 10.5 µM; in the assay with MDA-MB-435, 8.16 µM.
For `O=C(NC1=C(Cl)C(=O)c2ccccc2C1=O)C(=O)C(C(=O)c1ccc2ccccc2c1)C1OC(=O)c2ccccc21` (stereo not given), the TGI was 18 µM in the assay on HCT-15 colon; 22.7 µM with HCC-2998 colon; 11.2 µM in the assay on LOX IMVI melanoma; 29.3 µM in the assay with T-47D breast; 19.1 µM in the assay on SK-MEL-2 melanoma; 4.31 µM in the assay with UACC-62 melanoma. Besides, the TGI in the assay with M14 melanoma turned out to be 18.2 µM; in the assay on HS 578T breast it was 45.2 µM; in the assay with OVCAR-3 ovarian, 9.77 µM; in the assay on MDA-MB-435, 3.33 µM.
Turning to `CCN(CC)CCC1CCCCN1CC(=O)N1c2cc(Cl)ccc2NC(=O)CC1C` (stereo not given), the TGI with HCT-15 colon, with HCC-2998 colon, in the assay with LOX IMVI melanoma, in the assay on T-47D breast, in the assay on SK-MEL-2 melanoma and in the assay with UACC-62 melanoma was greater than 100 µM in each case. Further, the TGI in the assay on M14 melanoma, in the assay on HS 578T breast, in the assay on OVCAR-3 ovarian and in the assay with MDA-MB-435 was greater than 100 µM throughout.
As for `Cn1cc2c3ccccc3nc-2c2ccccc21`, the TGI in the assay with HCT-15 colon worked out at 4.94 µM; with HCC-2998 colon, 3.04 µM; in the assay on LOX IMVI melanoma, 4.36 µM; in the assay on T-47D breast it was 5.87 µM; in the assay with SK-MEL-2 melanoma, 3.52 µM; in the assay on UACC-62 melanoma it was 3.15 µM. Moreover, the TGI came to 4.4 µM in the assay on M14 melanoma, 5.3 µM with HS 578T breast, 6.88 µM with OVCAR-3 ovarian and 6.33 µM in the assay with MDA-MB-435.
With `COc1cc(/C=C/C(=N\NC(N)=S)c2sc(NNC(C)=O)nc2C)ccc1O`, the TGI in the assay with HCT-15 colon, in the assay with HCC-2998 colon, in the assay on LOX IMVI melanoma, in the assay on T-47D breast, in the assay with SK-MEL-2 melanoma and in the assay on UACC-62 melanoma was greater than 100 µM each time. Also, the TGI with M14 melanoma, with HS 578T breast, with OVCAR-3 ovarian and in the assay on MDA-MB-435 was greater than 100 µM throughout.
